According to US6683101B2, “Bicyclic cyclohexylamines and their use as NMDA receptor antagonists” (Warner-Lambert Company, priority 2000, dated 2004):
pIC50: −log10 of the molar value. Counter-ions that a name gives are not always drawn.

Test system: not given
Test: not given
Conditions: not given

SMILES | melting point [°C]
O=c1[nH]c2ccc(CCCN[C@H]3CC[C@H](c4ccc(F)cc4)CC3)cc2o1 (as salt: HCl) [Example 2, 6-{3-[trans-4-(4-Fluorophenyl)cyclohexylamino]propyl}-3H-benzoxazol-2-one] | 295 to 303
CN(CCN[C@H]1CC[C@H](c2ccccc2)CC1)c1ccc2[nH]c(=O)oc2c1 (as salt: HCl) [Example 3, 6-{Methyl[2-(trans-4-phenylcyclohexylamino)ethyl]amino}-3H-benzoxazol-2-one] | 229 to 234
CN(CCCc1ccc2[nH]c(=O)oc2c1)[C@H]1CC[C@H](c2ccc(F)cc2)CC1 (as salt: HCl) [Example 6, 6-(3-{[trans-4-(4-Fluorophenyl)cyclohexyl]methylamino}propyl)-3H-benzoxazol-2-one] | 235 to 241
CCN(CCCc1ccc2[nH]c(=O)oc2c1)[C@H]1CC[C@H](c2ccc(F)cc2)CC1 (as salt: HCl) [Example 7, 6-(3-{[trans-4-(4-Fluorophenyl)cyclohexyl]ethylamino}propyl)-3H-benzoxazol-2-one] | 99 to 109
O=c1[nH]c2ccc(CCCN[C@H]3CC[C@H](c4ccccc4)CC3)cc2o1 [Example 1, 6-[3-(trans-4-Phenylcyclohexylamino)propyl]-3H-benzoxazol-2-one] | 218 to 223

Results, then the molecule that gave them:

melting point [°C] | SMILES
232 to 237 | O=c1[nH]c2ccc(OCCN[C@H]3CC[C@@H](c4ccccc4)CC3)cc2[nH]1 (as salt: HCl) [Example 8a, 5-[2-(cis-4-Phenylcyclohexylamino)ethoxy]-1,3-dihydrobenzimidazol-2-one]
315 to 320 | O=c1[nH]c2ccc(OCCN[C@H]3CC[C@H](c4ccccc4)CC3)cc2[nH]1 (as salt: HCl) [Example 8b, 5-[2-(trans-4-Phenylcyclohexylamino)ethoxy]-1,3-dihydrobenzimidazol-2-one]

Target: NR2A/NR2B (Rattus norvegicus, UniProt Q00960)
Sequence (Q00960 27-1482, other chains not shown): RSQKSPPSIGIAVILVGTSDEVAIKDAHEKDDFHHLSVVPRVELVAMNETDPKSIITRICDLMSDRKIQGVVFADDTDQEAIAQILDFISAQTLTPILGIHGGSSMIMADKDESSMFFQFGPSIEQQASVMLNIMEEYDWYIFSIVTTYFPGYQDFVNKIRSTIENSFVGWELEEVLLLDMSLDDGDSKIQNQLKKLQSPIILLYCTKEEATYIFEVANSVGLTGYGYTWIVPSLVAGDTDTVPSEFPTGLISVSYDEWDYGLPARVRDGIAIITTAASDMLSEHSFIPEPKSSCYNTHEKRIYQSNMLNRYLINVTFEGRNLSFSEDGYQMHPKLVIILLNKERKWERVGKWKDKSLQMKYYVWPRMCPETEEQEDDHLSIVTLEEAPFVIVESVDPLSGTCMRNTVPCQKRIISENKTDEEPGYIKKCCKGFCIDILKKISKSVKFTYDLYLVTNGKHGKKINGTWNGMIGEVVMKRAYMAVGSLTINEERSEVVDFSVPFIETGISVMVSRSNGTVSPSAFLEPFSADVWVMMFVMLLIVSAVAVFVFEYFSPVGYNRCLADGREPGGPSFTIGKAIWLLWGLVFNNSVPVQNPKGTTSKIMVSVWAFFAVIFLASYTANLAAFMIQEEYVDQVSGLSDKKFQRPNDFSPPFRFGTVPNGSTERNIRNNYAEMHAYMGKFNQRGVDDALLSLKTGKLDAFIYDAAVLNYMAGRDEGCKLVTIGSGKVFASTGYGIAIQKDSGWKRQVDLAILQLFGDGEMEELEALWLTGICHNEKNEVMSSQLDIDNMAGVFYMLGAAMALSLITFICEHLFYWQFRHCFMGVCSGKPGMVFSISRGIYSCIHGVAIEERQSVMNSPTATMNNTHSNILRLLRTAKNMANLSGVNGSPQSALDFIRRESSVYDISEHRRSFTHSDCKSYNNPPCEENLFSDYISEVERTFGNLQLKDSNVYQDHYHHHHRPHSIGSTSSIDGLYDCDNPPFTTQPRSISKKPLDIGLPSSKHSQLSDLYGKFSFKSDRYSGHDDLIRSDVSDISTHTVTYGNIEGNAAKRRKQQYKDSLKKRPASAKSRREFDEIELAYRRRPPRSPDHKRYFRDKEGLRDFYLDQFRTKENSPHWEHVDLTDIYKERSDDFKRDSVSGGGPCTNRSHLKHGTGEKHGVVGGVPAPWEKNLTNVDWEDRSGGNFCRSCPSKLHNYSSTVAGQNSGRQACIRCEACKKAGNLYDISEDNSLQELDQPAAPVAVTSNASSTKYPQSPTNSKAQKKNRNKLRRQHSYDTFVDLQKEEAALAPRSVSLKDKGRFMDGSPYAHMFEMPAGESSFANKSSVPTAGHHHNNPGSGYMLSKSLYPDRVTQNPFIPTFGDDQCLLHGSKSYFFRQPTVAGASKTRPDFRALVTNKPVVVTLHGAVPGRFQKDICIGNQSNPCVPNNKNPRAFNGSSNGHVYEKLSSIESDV
Test: Electrophysiological assay at NMDA receptor subunits expressed in Xenopus oocytes (two-electrode voltage clamp)
Assay type: cell-based
Conditions: cloned rat NMDA receptor subunits in Xenopus oocytes; currents activated by glutamate (100 μM) and glycine (1-100 μM); read-out: NR2A/NR2B Oocyte IC50
Excerpt: Electrophysiological Assays at NMDA Receptor Subunits
Preparation of RNA. cDNA clones encoding the NR1A, NR2A, NR2B, and NR2C rat NMDA receptor subtypes were used (see, Moriyoshi et al. Nature (Lond), 1991;354:31-37; Kutsuwada et al. Nature (Lond), 1992;358:36-41; Monyer et al. Science (Washington, D.C.), 1992;256:1217-1221; Ikeda et al. FEBS Lett., 1992;313:34-38; Ishii et al. J. Biol. Chem., 1993;268:2836-2843 for details of these clones or their mouse homologs). The clones were transformed into appropriate host bacteria, and plasmid preparations were made with conventional DNA purification techniques. A sample of each clone was linearized by restriction enzyme digestion of […] and was synthesized with T3 RNA polymerase. The cRNA was diluted to 400 ng/μL and stored in 1 μL aliquots at −80° C. until injection.
The Xenopus oocyte expression system. Mature female Xenopus laevis were anaesthetized (20-40 minutes) using 0.15% 3-aminobenzoic acid ethyl ester (MS-222), and 2-4 ovarian lobes were surgically removed. Oocytes at developmental stages IV-VI (Dumont J. N. J. Morphol., 1972;136:153-180) were dissected from the ovary still surrounded by enveloping ovarian tissues. Follicle-enclosed oocytes were micro-injected with 1:1 mixtures of NR1A:NR2A, 2B, or 2C; injecting 1 to 10 ng of RNA encoding each receptor subunit. NR1A encoding RNA was injected alone at ˜20 ng. Oocytes were stored in Barth's medium containing (in mM): NaCl, 88; KCl, 1; CaCl2, 0.41; Ca (NO3)2, 0.33; MgSO4, 0.82; NaHCO3, 2.4; HEPES 5, pH 7.4, with 0.11 mg/ml gentamicin sulphate. While oocytes were still surrounded by enveloping ovarian tissues, the Barth's medium was supplemented with 0.1% bovine serum. […]
Electrical recordings were made using a conventional two-electrode voltage clamp (Dagan TEV-200) over periods ranging between 3 to 21 days following injection. […] Using oocytes expressing different subunit combinations of NMDA receptor, NMDA currents were activated by co-application of glutamate (100 μM and glycine (1-100 μM). Inhibitory potency of the novel antagonists was assessed on responses elicited by fixed concentrations of glutamate and glycine, by measuring reductions in current induced by progressively increasing concentrations of antagonist. […]
In which Icontrol is the current evoked by agonists alone, pIC50=−log IC50, IC50 is the concentration of antagonist that produced half maximal inhibition, and n is the slope factor (De Lean et al. Am. J. Physiol., 1978;235:E97-102). For incomplete curves, analysis by fitting was unreliable, and IC50 values were calculated by simple regression over linear portions of the curves (Origin: Microcal Software).

SMILES | pIC50
O=c1[nH]c2ccc(CCCN[C@H]3CC[C@H](c4ccc(F)cc4)CC3)cc2o1 [Example 2, 6-{3-[trans-4-(4-Fluorophenyl)cyclohexylamino]propyl}-3H-benzoxazol-2-one] | 6.92
CN(CCN[C@H]1CC[C@H](c2ccccc2)CC1)c1ccc2[nH]c(=O)oc2c1 [Example 3, 6-{Methyl[2-(trans-4-phenylcyclohexylamino)ethyl]amino}-3H-benzoxazol-2-one] | 6.00

More lines, now with the values ahead:

pIC50 | SMILES
6.55 | O=c1[nH]c2ccc(OCCN[C@H]3CC[C@@H](c4ccccc4)CC3)cc2[nH]1 [Example 8a, 5-[2-(cis-4-Phenylcyclohexylamino)ethoxy]-1,3-dihydrobenzimidazol-2-one]
6.92 | O=c1[nH]c2ccc(OCCN[C@H]3CC[C@H](c4ccccc4)CC3)cc2[nH]1 [Example 8b, 5-[2-(trans-4-Phenylcyclohexylamino)ethoxy]-1,3-dihydrobenzimidazol-2-one]

Target: T1, NMDA receptor ([3H]ifenprodil binding site) (Rattus norvegicus, UniProt P35439+Q00960)
T1 construct: tissue Zivic-Miller Laboratories, Inc; host or cells: adult rat forebrain, washed buffy coat membrane fraction
T1 sequence (Q00960 27-1482, other chains not shown): as above
Test: [3H]Ifenprodil binding assay, rat forebrain membranes
Conditions: adult rat forebrain membranes, 4 nM [3H]-ifenprodil, 2 hours at room temperature, pH 7.4
Procedure: [^3H]Ifenprodil Binding Assay Protocol:
All buffers and reagents used in assay incubations or to dissolve drugs were prepared using water purified through a Milli-Q reverse osmosis system (Millipore Corp, Bedford, Mass.) and treated with UV emissions. Prior to use in the assays, buffers were further filtered through a sterile Corning filtration unit (Corning Glass Works, Corning, N.Y.) containing a 0.2 micron filter. Buffer used to rinse the membranes on the assay filters was prepared with purified water, but was not refiltered and was stored no longer than 5 days. Stock solutions of the drugs (usually 10 mM) were dissolved in 20 mM HEPES-KOH buffer pH 7.4 (assay buffer) with the addition of 1 to 5 μL of glacial AcOH, if needed, to keep them in solution. For eliprodil, the stock solution was buffer with the addition of 10% DMSO. All subsequent dilutions from stock were made in buffer.
An extensively washed buffy coat membrane fraction was prepared from frozen adult rat forebrains (Zivic-Miller Laboratories, Inc, Zelienople, Pa.) as described previously (Coughenour L. L., Cordon J. J. J. Pharmacol Exp. Ther., 1997;280:584-592) and stored at −80° C. On the day of the assay, pellets were resuspended in 35 mL of assay buffer at pH 7.4 using a Polytron setting 6. After incubation at 37° C. for 30 minutes in a shaking water bath, the homogenate was centrifuged 40,000×g for 10 minutes at 4° C. The pellets were resuspended in fresh buffer and centrifuged 3 more times before final suspension for use in the assay.
[^3H]Ifenprodil Binding. Triplicate incubations were carried out in a volume of 0.5 mL in 1.3 mL polypropylene tubes (Marsh Biomedical Products Inc, Rochester, N.Y.) for 2 hours at room temperature. Incubations contained test agents, membranes (100-200 μg protein), and 4 nM [^3H]-ifenprodil in 20 mM HEPES-KOH buffer, pH 7.4 (assay buffer). Assays were started by addition of the membranes. Bound radioligand was separated by filtration under reduced pressure Using a Tomtec Mach II, 96-well cell harvester (Tomtec Inc, Orange, Colo.). Filtration was through Whatman GF/B glass fiber filters (Whatman Ltd, Maidstone, England), which had been soaked for at least 15 minutes in 0.3% polyethylenimine and allowed to air dry. The filters were rinsed with 3 mL of ice cold assay buffer within 6 seconds. Air was allowed to pass through the filters for an additional 10 seconds to remove residual moisture. The filter mat was supported on a cold (−20° C.) teflon support, and filters from individual wells were separated and placed in Mini Poly-Q vials (Beckman Instrrnents Inc, Fullerton, Calif.) and filled with 4 mL of scintillation cocktail (Beckman Ready Protein^+). Radioactivity retained on the filter was determined by liquid scintillation spectrophotometry. Nonspecific binding was defined as the binding in the presence of 1 mM ifenprodil. Specific binding was 90%.
Data analysis. Binding curves were statistically analyzed for a best one or two site competition fit using GraphPad Prism software (GraphPad Software Inc, San Diego, Calif.). The normalized data was fit by nonweighted nonlinear regression to either [formula]
Control data was entered as 100%, and no parameters were constrained. Inhibition curves were compared by ANOVA with post test comparisons of the logIC50 using Dunnett's multiple comparisons post test or Student's nonpaired, two-tailed t-test (GraphPad InStat software).

pIC50 | SMILES
7.28 | O=c1[nH]c2ccc(CCCN[C@H]3CC[C@H](c4ccccc4)CC3)cc2o1 [Example 1, 6-[3-(trans-4-Phenylcyclohexylamino)propyl]-3H-benzoxazol-2-one]
7.04 | O=c1[nH]c2ccc(SCCN[C@H]3CC[C@H](c4ccccc4)CC3)cc2o1 [Example 4, 6-[2-(trans-4-Phenylcyclohexylamino)ethylsulfanyl]-3H-benzoxazol-2-one]
5.75 | CN(CC(O)c1ccc2[nH]c(=O)[nH]c2c1)[C@H]1CC[C@H](c2ccccc2)CC1 (stereo partly drawn) [Example 5, 5-{1-Hydroxy-2-[methyl(trans-4-phenylcyclohexyl)amino]ethyl}-1,3-dihydrobenzimidazol-2-one]
6.14 | CN(CCCc1ccc2[nH]c(=O)oc2c1)[C@H]1CC[C@H](c2ccc(F)cc2)CC1 [Example 6, 6-(3-{[trans-4-(4-Fluorophenyl)cyclohexyl]methylamino}propyl)-3H-benzoxazol-2-one]
< 6.00 | CCN(CCCc1ccc2[nH]c(=O)oc2c1)[C@H]1CC[C@H](c2ccc(F)cc2)CC1 [Example 7, 6-(3-{[trans-4-(4-Fluorophenyl)cyclohexyl]ethylamino}propyl)-3H-benzoxazol-2-one]
